Measured values as given in the NIST ThermoML archive (doi:10.1021/je025655p).

Test: xn = mol fraction of the nth substance listed
Conditions: 101.3 kPa, Liquid; for viscosity: Capillary tube (Ostwald / Ubbelohde) method; for speed of sound: Sing-around technique in a fixed-path interferometer; for mass density: Vibrating tube method

OCC(F)(F)F [2,2,2-trifluoroethanol] + C1CCOCC1
Conditions | mass density [kg/m3] | speed of sound [m/s] | viscosity [mPa·s]
283.15 K, x2 = 0.0508 | – | – | 2.521
283.15 K, x2 = 0.1011 | – | – | 2.265
283.15 K, x2 = 0.1039 | 1328.18 | 903.5 | –
283.15 K, x2 = 0.2025 | – | – | 1.834
283.15 K, x2 = 0.2071 | 1259.32 | 942.2 | –
283.15 K, x2 = 0.3024 | – | – | 1.546
283.15 K, x2 = 0.3067 | – | 985.6 | –
283.15 K, x2 = 0.3073 | 1199.39 | – | –
283.15 K, x2 = 0.404 | – | – | 1.348
283.15 K, x2 = 0.4123 | – | 1034 | –
283.15 K, x2 = 0.4127 | 1142.29 | – | –
283.15 K, x2 = 0.5017 | 1097.77 | 1076.2 | –
283.15 K, x2 = 0.5027 | – | – | 1.22
283.15 K, x2 = 0.6011 | 1051.7 | 1124.9 | –
283.15 K, x2 = 0.6069 | – | – | 1.123
283.15 K, x2 = 0.7013 | – | – | 1.064
283.15 K, x2 = 0.7183 | 1001.3 | 1184.3 | –
283.15 K, x2 = 0.8016 | – | – | 1.026
283.15 K, x2 = 0.8206 | 960.36 | 1237.7 | –
283.15 K, x2 = 0.8955 | 931.9 | 1278.1 | –
283.15 K, x2 = 0.9064 | – | – | 1.01
298.15 K, x2 = 0.0508 | – | – | 1.68
298.15 K, x2 = 0.1011 | – | – | 1.557
298.15 K, x2 = 0.1023 | 1305.58 | 850.5 | –
298.15 K, x2 = 0.2025 | – | – | 1.33
298.15 K, x2 = 0.2029 | 1239.41 | 886.4 | –
298.15 K, x2 = 0.3024 | – | – | 1.159
298.15 K, x2 = 0.3203 | 1170.85 | 933.6 | –
298.15 K, x2 = 0.404 | – | – | 1.034
298.15 K, x2 = 0.412 | 1122.5 | 972.6 | –
298.15 K, x2 = 0.5027 | – | – | 0.9509
298.15 K, x2 = 0.5192 | 1070.38 | – | –
298.15 K, x2 = 0.5208 | – | 1021 | –
298.15 K, x2 = 0.6069 | – | – | 0.8855
298.15 K, x2 = 0.6171 | 1026.55 | 1065.4 | –
298.15 K, x2 = 0.7013 | – | – | 0.845
298.15 K, x2 = 0.7342 | 977.81 | 1121 | –
298.15 K, x2 = 0.793 | 954.59 | – | –
298.15 K, x2 = 0.7996 | – | 1152.3 | –
298.15 K, x2 = 0.8016 | – | – | 0.8183
298.15 K, x2 = 0.8967 | 915.73 | 1201.6 | –
298.15 K, x2 = 0.9064 | – | – | 0.8047
313.15 K, x2 = 0.0508 | – | – | 1.171
313.15 K, x2 = 0.1011 | – | – | 1.112
